Tests used:
[1] = tested on: polyarginine; experiment: ITC, POM into polyarginine; format: binding; details: 10 mM Tris, pH 7.4, value is Ka divided by 10^7
Experimental: (§1) All experiments were performed with a VP‐ITC MicroCalorimeter from MicroCal, Int,. at atmospheric pressure and 298.15 K. Solutions were degassed and thermostatic prior to the titration experiments in a ThermoVac accessory. A constant volume of POM ([PVW11]^4‒ or [SiMoW11]^4‒) (10 µL per injection) was injected into the oligopeptide solution (heptaArg, protamine, polyArg or heptaLys) in 10 mM Tris, pH 7.4 to determine the apparent binding affinity of [PVW11]^4‒ and [SiMoW11]^4‒ with the oligopeptides. Dilution heats were determined by titration of the POM into buffer and subtracted from the reaction heat. The neat reaction heat was fitted with Origin 7.0 software by using the “one‐set‐of‐sites” model to obtain the complex stability constant (K a) and molar reaction enthalpy (∆H°). The free energy (∆G°) and entropy changes (∆S°) were obtained according to the relation: ∆G° = −RTlnK a = ∆H°−T∆S°.
(§2) 4. Supramolecular interactions
(§3) Figure S10. Microcalorimetric titrations in 10 mM Tris, pH 7.4: Raw ITC data (top) for the sequential injections of POM solution into an oligoarginine solution, and apparent reaction heats (bottom) obtained from the integration of the calorimetric traces. […]
(§4) values and ± 0.5 kcal mol‒1 for ΔH and TΔS (duplicate measurements). Note that none of these interactions lead to any precipitation or aggregates, confirmed by the absence of any detectable signal by DLS. […]

[2] = tested on: protamine; experiment: ITC, POM into protamine; format: binding; details: 10 mM Tris, pH 7.4, value is Ka divided by 10^7
Experimental: as §1, §2, §3, §4

[3] = tested on: cationic oligopeptides; experiment: ITC, POM with the peptides (general statement); format: binding
Experimental: To affect membrane transport, any carrier needs to display an affinity toward the cargo as well as toward the lipid bilayer. Accordingly, the interaction between [PVW11]^4‒ and [SiMoW11]^4‒ and the peptides was analyzed by isothermal titration calorimetry (ITC, Figure 2c,d; and Figures S10 and S11, Supporting Information). […] (enthalpically driven, interaction with the peptide backbones, Table S6, Supporting Information) and Coulombic interactions (interaction with arginine and lysine side chains). The strong but reversible intermolecular interactions between the low‐charged POMs and the cationic oligopeptides present an interesting finding, which was measured for both, oligo‐ and polypeptides. Previous ITC studies have focused only on the binding of proteins with highly charged and therefore weakly chaotropic POMs (n < −6, Table S3, Supporting Information), where electrostatic interactions were implied as main driving force.^[ [65], [66], [67], [68], [69], [70], [71], [72], [73] ^]
All experiments were performed with a VP‐ITC MicroCalorimeter from MicroCal, Int,. at atmospheric pressure and 298.15 K. Solutions were degassed and thermostatic prior to the titration experiments in a ThermoVac accessory. […] Dilution heats were determined by titration of the POM into buffer and subtracted from the reaction heat. […]

[4] = tested on: heptalysine; experiment: ITC, POM into heptalysine; format: binding; details: 10 mM Tris, pH 7.4, value is Ka divided by 10^7
Experimental: as §1
Figure S11. Microcalorimetric titrations in 10 mM Tris, pH 7.4: Raw ITC data (top) for the sequential injections of POM solution into a heptalysine solution, and apparent reaction heats (bottom) obtained from the integration of the calorimetric traces. POM/heptalysine concentrations in µM: a, 200/8 and b, 150/10. Error data is 5% for the n values and ± 0.5 kcal mol‒1 for ΔH and TΔS (duplicate […]
Table S6. […]

[5] = CF transport assay in anionic vesicles; format: biochemical; details: heptaArg cargo; for heptaArg Ymax, anionic vesicles / EC50: CF assay, pH 7.4; for heptaArg Ymax, anionic vesicles: DMPE/DPPG/CHOL 1/2/1 (anionic), 13 µM phospholipids, 10 mM Tris, 140 mM NaCl; for EC50 / heptaArg E, anionic vesicles: DMPE/DPPG/CHOL (anionic); for heptaArg E, anionic vesicles: f = 20.6
Experimental: To better mimic biological membranes, which contain negatively charged components and cholesterol, equivalent transport experiments were performed in anionic liposomes^[ [19], [20] ^] with the prototypal POM carriers, [PVW11]^4‒ and [SiMoW11]^4‒ . […] This encouraged us to transfer the experiments to CHO‐K1 (Chinese hamster ovary) cells, after we had confirmed sufficient stability of the most promising POM carriers, [PVW11]^4‒ and [SiMoW11]^4‒ , in the cellular nutrient mixture (F‐12 Ham's medium, Figures S26–S28C, Supporting Information).
Anionic vesicles were prepared analogously except for the lipid composition, DMPE/DPPG/CHOL (4.4/10.4/2.6 mg, 1/2/1 molar ratio, DMPE: 1,2‐dimyristoyl‐sn‐glycero‐3‐phosphoethanolamine; DPPG: 1,2‐dipalmitoyl‐sn‐glycero‐3‐phospho‐(1´‐rac‐glycerol); CHOL: cholesterol) in a 1:1 mixture of CHCl3 and MeOH (1 mL), the hydration (60 min) and extrusion were performed at 55 °C, and the employed buffers were 100 mM CF, 10 mM Tris, pH 7.4 and 10 mM Tris, 140 mM NaCl, pH 7.4 for rehydration and elution, respectively.
Vesicles stock solutions (5–10 µL) were diluted with the corresponding buffer in a disposable plastic cuvette and gently stirred (total volume 2000 µL, final lipid concentration 13 µM). Carboxyfluorescein fluorescence was monitored at λ em = 517 nm (λ ex = 492 nm) as a function of time after addition of POMs at 60 s, analyte at 120 s and Triton X‐100 (24 µL 1.2% wt/vol) at 600 s to lyse the vesicles, for calibration. Fluorescence intensities were normalized to fractional emission as (1) It=It−I0/I∞−I0 where I 0 = I t before POM addition and […] after lysis. For Hill analysis, I t before lysis was defined as transport activity, Y, and plotted against POM concentration, c, and fitted to the Hill Equation (2), to afford the activity in absence of POM, Y 0, the maximal activity, Y max, the concentration needed to achieve 50% of maximal activity, EC 50, and the Hill coefficient, n (2) Y=Y0+Ymax−Y0/1+EC50/c^n […]
Figure S8. Heptaarginine transport through anionic vesicles[22-23][24] (DMPE/DPPG/CHOL, 1/2/1 molar ratio) facilitated by [PVW11]4‒ (a) and [SiMoW11]4‒ (c). Transport activity as function of [PVW11]4‒ (b) and [SiMoW11]4‒ (d) concentration, solid lines correspond to the resulting fit with the Hill equation.
Table S5. Membrane transport parameters of active POMs towards different analytes and different lipid composition. […]
a) 13 µM phospholipids. b) 10 µM cargo. c) Maximal activity; ±2% error (SD). d) Effective concentration to reach 50% activity of Ymax; 5 % error (SD). e) Activation efficiency E = Ymax (pEC50/f), were pEC50 is the negative logarithm of the EC50, and f a scaling factor set to 20.6 to allocate E between 0

K4[α‐Si^IVMo^VIW^VI 11O40]·24H2O [[SiMoW11]^4‒]
Ka/ 107, polyarginine [1]: 1.6 M‒1 | Ka/ 107, protamine [2]: 1.7 M‒1 | Supramolecular interaction with the peptides (order of magnitude) [3]: ~10^7 M ^−1 | Ka/ 107, heptalysine [4]: 4.1 M‒1 | heptaArg Ymax, anionic vesicles [5]: 61% | EC50 [5]: 60 µM | heptaArg E, anionic vesicles [5]: 3.6

K4[α‐P^VV^VW^VI 11O40]·4H2O [[PVW11]^4‒]
Ka/ 107, polyarginine [1]: 3.5 M‒1 | Ka/ 107, protamine [2]: 25 M‒1 | Supramolecular interaction with the peptides (order of magnitude) [3]: ~10^7 M ^−1 | Ka/ 107, heptalysine [4]: 2.8 M‒1 | heptaArg Ymax, anionic vesicles [5]: 45% | EC50 [5]: 50 µM | heptaArg E, anionic vesicles [5]: 2.8
